Source: the supplement of paper PMC10307832

Tests used:
Assay in all cases: relative viability (nuclei count vs DMSO), 5 days (fraction); higher = more cells survive
[1] = compound: CC1=CC(=NN1)NC2=CC(=NC(=N2)/C=C/C3=CC=CC=C3)N4CCN(CC4)C + CC(=O)Nc1cccc(-n2c(=O)n(C3CC3)c(=O)c3c(Nc4ccc(I)cc4F)n(C)c(=O)c(C)c32)c1 [Trametinib] (partner 0.02 µM)
Method in brief: (§1)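 Dosing by pin tool came one day after lung cancer cell lines were seeded in 1536-well plates, using either one drug or a fixed anchor-drug dose plus five library-drug doses (not always all listed) in √10 steps. After 5 days, nuclei were counted on 4× images. Relative viability is treated-well nuclei count divided by vehicle-well nuclei count, and values are medians of duplicate plates.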

[2] = compound: CC1=CC(=NN1)NC2=CC(=NC(=N2)/C=C/C3=CC=CC=C3)N4CCN(CC4)C + CC(=O)c1c(C)c2cnc(Nc3ccc(N4CCNCC4)cn3)nc2n(C2CCCC2)c1=O [Palbociclib] (partner 0.5 µM)
Method in brief: as §1

[3] = compound: CC1=CC(=NN1)NC2=CC(=NC(=N2)/C=C/C3=CC=CC=C3)N4CCN(CC4)C + O=C(c1cc(Cc2n[nH]c(=O)c3ccccc23)ccc1F)N1CCN(C(=O)C2CC2)CC1 [Olaparib] (partner 8 µM)
Method in brief: as §1

Bortezomib + Decitabine = compound: CC(C)C[C@H](NC(=O)[C@H](Cc1ccccc1)NC(=O)c1cnccn1)B(O)O [Bortezomib] + Nc1ncn([C@H]2C[C@H](O)[C@@H](CO)O2)c(=O)n1 [Decitabine] (partner 2 µM)
Method in brief: as §1

Row | Cell Line | relative viability ([1]; first compound 0.08 µM) | relative viability ([1]; first compound 0.253 µM) | relative viability ([1]; first compound 0.8 µM) | relative viability ([1]; first compound 2.53 µM) | relative viability ([1]; first compound 8 µM) | relative viability ([2]; first compound 0.08 µM) | relative viability ([2]; first compound 0.253 µM) | relative viability ([2]; first compound 0.8 µM) | relative viability ([2]; first compound 2.53 µM) | relative viability ([2]; first compound 8 µM) | relative viability ([3]; first compound 0.08 µM) | relative viability ([3]; first compound 0.253 µM) | relative viability ([3]; first compound 0.8 µM) | relative viability ([3]; first compound 2.53 µM) | relative viability ([3]; first compound 8 µM) | relative viability (Bortezomib + Decitabine; first compound 0.0002 µM) | relative viability (Bortezomib + Decitabine; first compound 0.000632 µM) | relative viability (Bortezomib + Decitabine; first compound 0.002 µM) | relative viability (Bortezomib + Decitabine; first compound 0.006325 µM) | relative viability (Bortezomib + Decitabine; first compound 0.02 µM)
1 | NCI-H1944 | 0.433 | 0.429 | 0.37 | 0.318 | 0.239 | 0.373 | 0.341 | 0.338 | 0.264 | 0.189 | 0.416 | 0.406 | 0.467 | 0.29 | 0.207 | 0.414 | 0.429 | 0.461 | 0.402 | 0.248
2 | SK-MES-1 | 0.549 | 0.646 | 0.595 | 0.245 | 0.137 | 0.357 | 0.289 | 0.309 | 0.257 | 0.155 | 0.667 | 0.776 | 0.566 | 0.126 | 0.134 | 0.444 | 0.411 | 0.379 | 0.194 | 0.156
3 | NCI-H1792 | 0.427 | 0.402 | 0.396 | 0.195 | 0.0298 | 0.649 | 0.751 | 0.684 | 0.559 | 0.155 | 0.437 | 0.501 | 0.431 | 0.374 | 0.031 | 0.473 | 0.581 | 0.664 | 0.286 | 0.0625
4 | NCI-H1355 | 0.457 | 0.435 | 0.415 | 0.334 | 0.151 | 0.442 | 0.444 | 0.387 | 0.309 | 0.165 | 0.707 | 0.813 | 0.69 | 0.324 | 0.113 | 0.343 | 0.362 | 0.367 | 0.177 | 0.139
5 | SK-LU-1 | 0.502 | 0.266 | 0.555 | 0.229 | 0.129 | 0.453 | 0.368 | 0.457 | 0.248 | 0.155 | 0.405 | 0.515 | 0.423 | 0.273 | 0.125 | 0.499 | 0.644 | 0.533 | 0.245 | 0.174
6 | NCI-H2342 | 1 | 0.869 | 0.958 | 0.962 | 0.602 | 0.531 | 0.517 | 0.532 | 0.527 | 0.492 | 0.411 | 0.419 | 0.417 | 0.412 | 0.268 | 0.818 | 0.795 | 0.694 | 0.725 | 0.436
7 | NCI-H1793 | 0.405 | 0.402 | 0.356 | 0.167 | 0.119 | 0.325 | 0.374 | 0.273 | 0.157 | 0.144 | 0.845 | 1.06 | 0.667 | 0.138 | 0.0993 | 0.492 |  | 0.507 | 0.334 | 0.146
8 | NCI-H2347 | 0.291 | 0.231 | 0.264 | 0.291 | 0.216 | 0.426 | 0.412 | 0.411 | 0.435 | 0.362 | 0.553 | 0.665 | 0.578 | 0.565 | 0.406 | 0.631 | 0.601 | 0.648 | 0.466 | 0.429
9 | A-427 | 0.632 | 0.6 | 0.76 | 0.451 | 0.215 | 0.58 | 0.518 | 0.51 | 0.454 | 0.201 | 0.815 | 0.774 | 0.913 | 0.468 | 0.158 | 0.531 | 0.536 | 0.579 | 0.247 | 0.18
10 | HCC-366 | 0.334 | 0.372 | 0.253 | 0.0375 | 0.0236 | 0.414 | 0.368 | 0.344 | 0.0349 | 0.019 | 0.332 | 0.39 | 0.24 | 0.0237 | 0.0171 | 0.305 | 0.327 | 0.39 | 0.201 | 0.0383
11 | HCC-78 | 0.763 | 0.605 | 0.877 | 0.647 | 0.324 | 0.469 | 0.439 | 0.546 | 0.398 | 0.338 | 0.732 | 0.902 | 0.903 | 0.673 | 0.29 | 0.703 | 0.744 | 0.644 | 0.615 | 0.291
12 | PC-14 | 0.85 | 0.805 | 0.835 | 0.0586 | 0.038 | 0.526 | 0.497 | 0.443 | 0.22 | 0.0464 | 0.285 | 0.289 | 0.275 | 0.0326 | 0.0264 | 0.254 | 0.234 | 0.195 | 0.0599 | 0.0702
13 | NCI-H2087 | 0.155 | 0.18 | 0.151 | 0.072 | 0.0577 | 0.213 | 0.17 | 0.236 | 0.164 | 0.123 | 0.538 | 0.629 | 0.553 | 0.303 | 0.0973 | 0.233 | 0.265 | 0.141 | 0.0621 | 0.0401
14 | HOP-62 | 0.382 | 0.297 | 0.36 | 0.337 | 0.163 | 0.41 | 0.458 | 0.492 | 0.371 | 0.154 | 0.366 | 0.521 | 0.436 | 0.395 | 0.194 | 0.232 | 0.204 | 0.223 | 0.106 | 0.0681
15 | EKVX | 0.387 | 0.368 | 0.394 | 0.352 | 0.137 | 0.414 | 0.465 | 0.362 | 0.301 | 0.144 | 0.779 | 0.804 | 0.904 | 0.695 | 0.157 | 0.36 | 0.393 | 0.431 | 0.25 | 0.0809
16 | EMC-BAC-2 | 0.899 | 0.698 | 0.938 | 0.691 | 0.283 | 0.519 | 0.543 | 0.504 | 0.454 | 0.273 | 0.465 | 0.521 | 0.445 | 0.341 | 0.197 | 1.07 | 0.987 | 0.828 | 0.559 | 0.196
